# Experimental data taken from US5306808A, “Peptide derivatives having vasodilating activity” (Takeda Chemical Industries, Ltd., priority 1991, dated 1994).
# Where a SMILES comes first, the peptide text is derived from it. Bridges are numbered along the chain shown (N, C = ends). [ ]: non-standard residue; d: D form. tBuAla = CC(C)(C)C[C@H](N)C(=O)O; Nva = CCC[C@H](N)C(=O)O; Abu = CC[C@H](N)C(=O)O
# Tests used:
# endothelin receptor = assay: Assay of affinity for receptor (I125-ET-1 binding to porcine myocardial membrane fraction); settings: ET-1 = 100
# Description: A membrane fraction prepared from the porcine heart was diluted to 0.15 mg/ml by using a buffer solution [PBS (pH 7.4) containing 0.5 mM CaCl2, 1.0 mM MgCl2, 0.02% NaN3, 0.1% BSA (fraction V, Sigma), 0.1 mM PMSF and 0.1 μg/ml pepstatin (binding buffer)] for assay, and 100 μl of the resulting suspension of the membrane fraction was poured into each assay tube to use for assay. To this suspension of the membrane fraction were added 2 μl of an endothelin-1 solution labeled with 5 μM radioactive iodine. Further, 3 μl of a test peptide solution was added thereto, followed by maintenance at a temperature of 25° C. for 1 hour. Then, the resulting suspension was diluted with 900 μl of the buffer solution for assay cooled with ice, and thereafter separated into a supernatant and a precipitate by centrifugation at 12,000×g for 10 minutes. Cell membranes and an endothelin receptor embedded therein were contained in the precipitate, and radioactive iodine-labeled endothelin combined with the receptor was also recovered in the precipitate. Accordingly, the amount of radioactive iodine-labeled endothelin combined with the endothelin receptor was determined by measuring the amount of radioactive iodine contained in the precipitate with a gamma-ray counter. Compounds in which the affinity for the endothelin receptor is high and the maximum constriction is not high are antagonists. Contrary to this, compounds in which the affinity for the endothelin receptor is high and the maximum constriction is high are agonists.
# porcine coronary artery = type: cell-based; settings: for Constrictor activity (Relative potency): ET-1 = 100; for Maximum Constriction (% 60 mM KCl): normalized to constriction response to 60 mM KCl
# Description: Each of helical strips 2 mm×15 mm prepared from the coronary right ramus circumflexus from which the adventitial connective tissues and the endothelial cells were removed was set to each of 4 ml organ baths. Its tension was detected by a force displacement transducer UL-10GR (Minebea), and recorded by a polygraph (NEC Sanei). The organ baths were maintained at 37° C., and filled with a Krebs-Henseleit solution (composition:118 mM NaCl, 4.7 mM KCl, 2.5 mM CaCl2, 1.2 mM KH2 PO4, 25.0 mM NaHCO3, 1.2 mM MgSO4, 10.0 mM glucose) gassed with 95% O2 and 5% CO2.
# A tension of 1.25 to 1.5 g was applied to each of the strips, followed by equilibration for 1.5 hours. 60 mM KCl was repeatedly applied thereto at intervals of 30 minutes until the constriction response became constant. After additional equilibration for 1.5 hours, a sample for assay was given. The constriction of the strips was normalized by the constriction response of the individual strips to 60 mM KCl and statistically processed.
# (2) As to the antagonist property or the agonist property of the peptide derivatives of present invention to endothelin, the affinity for an endothelin receptor and the constrictor activity to porcine coronary smooth muscles (according to the method described in (1) described above) were assayed. The affinity for the receptor was assayed by the following method.
smiles,measurement,setting,value
"CC[C@H](NC(=O)[C@H](CC(C)C)NC(=O)[C@H](Cc1c[nH]cn1)NC(=O)[C@@H]1CSSC[C@H](N)C(=O)N[C@@H](CO)C(=O)N[C@H]2CSSC[C@H](NC(=O)[C@H](CCC(=O)O)NC(=O)[C@H](CCCCN)NC(=O)[C@H](CC(=O)O)NC(=O)[C@H](CCSC)NC(=O)[C@H](CC(C)C)NC(=O)[C@H](CO)NC(=O)[C@H](CO)NC2=O)C(=O)N[C@@H](C(C)C)C(=O)N[C@@H](Cc2ccc(O)cc2)C(=O)N[C@@H](Cc2ccccc2)C(=O)N1)C(=O)N[C@H](C(=O)N[C@H](C(=O)N[C@@H](Cc1c[nH]c2ccccc12)C(=O)O)[C@@H](C)CC)[C@@H](C)CC [Example 30, [Abu^18]-ET-1] (H-CSCSSLMDKECVYFCHL[Abu]IIW-OH; disulfide 1-15, 3-11)",Receptor binding activity (Relative potency),endothelin receptor,5.0
same,Constrictor activity (Relative potency),porcine coronary artery,< 0.1
same,Maximum Constriction (% 60 mM KCl),porcine coronary artery,6 % 60 mM KCl
"CCC[C@H](NC(=O)[C@H](CC(C)C)NC(=O)[C@H](Cc1c[nH]cn1)NC(=O)[C@@H]1CSSC[C@H](N)C(=O)N[C@@H](CO)C(=O)N[C@H]2CSSC[C@H](NC(=O)[C@H](CCC(=O)O)NC(=O)[C@H](CCCCN)NC(=O)[C@H](CC(=O)O)NC(=O)[C@H](CCSC)NC(=O)[C@H](CC(C)C)NC(=O)[C@H](CO)NC(=O)[C@H](CO)NC2=O)C(=O)N[C@@H](C(C)C)C(=O)N[C@@H](Cc2ccc(O)cc2)C(=O)N[C@@H](Cc2ccccc2)C(=O)N1)C(=O)N[C@H](C(=O)N[C@H](C(=O)N[C@@H](Cc1c[nH]c2ccccc12)C(=O)O)[C@@H](C)CC)[C@@H](C)CC [Example 31, [Nva^18]-ET-1] (H-CSCSSLMDKECVYFCHL[Nva]IIW-OH; disulfide 1-15, 3-11)",Receptor binding activity (Relative potency),endothelin receptor,2.4
same,Constrictor activity (Relative potency),porcine coronary artery,< 0.1
same,Maximum Constriction (% 60 mM KCl),porcine coronary artery,2 % 60 mM KCl
"CC[C@H](C)[C@H](NC(=O)[C@H](Cc1ccccc1)NC(=O)[C@H](CC(C)C)NC(=O)[C@H](Cc1c[nH]cn1)NC(=O)[C@@H]1CSSC[C@H](N)C(=O)N[C@@H](CO)C(=O)N[C@H]2CSSC[C@H](NC(=O)[C@H](CCC(=O)O)NC(=O)[C@H](CCCCN)NC(=O)[C@H](CC(=O)O)NC(=O)[C@H](CCSC)NC(=O)[C@H](CC(C)C)NC(=O)[C@H](CO)NC(=O)[C@H](CO)NC2=O)C(=O)N[C@@H](C(C)C)C(=O)N[C@@H](Cc2ccc(O)cc2)C(=O)N[C@@H](Cc2ccccc2)C(=O)N1)C(=O)N[C@H](C(=O)N[C@@H](Cc1c[nH]c2ccccc12)C(=O)O)[C@@H](C)CC [Example 33, [Phe^18]-ET-1] (H-CSCSSLMDKECVYFCHLFIIW-OH; disulfide 1-15, 3-11)",Receptor binding activity (Relative potency),endothelin receptor,2.4
same,Constrictor activity (Relative potency),porcine coronary artery,< 0.1
same,Maximum Constriction (% 60 mM KCl),porcine coronary artery,0 % 60 mM KCl
"CC[C@H](C)[C@H](NC(=O)[C@H](CO)NC(=O)[C@H](CC(C)C)NC(=O)[C@H](Cc1c[nH]cn1)NC(=O)[C@@H]1CSSC[C@H](N)C(=O)N[C@@H](CO)C(=O)N[C@H]2CSSC[C@H](NC(=O)[C@H](CCC(=O)O)NC(=O)[C@H](CCCCN)NC(=O)[C@H](CC(=O)O)NC(=O)[C@H](CCSC)NC(=O)[C@H](CC(C)C)NC(=O)[C@H](CO)NC(=O)[C@H](CO)NC2=O)C(=O)N[C@@H](C(C)C)C(=O)N[C@@H](Cc2ccc(O)cc2)C(=O)N[C@@H](Cc2ccccc2)C(=O)N1)C(=O)N[C@H](C(=O)N[C@@H](Cc1c[nH]c2ccccc12)C(=O)O)[C@@H](C)CC [Example 34, [Ser^18]-ET-1] (H-CSCSSLMDKECVYFCHLSIIW-OH; disulfide 1-15, 3-11)",Receptor binding activity (Relative potency),endothelin receptor,20.9
same,Constrictor activity (Relative potency),porcine coronary artery,18
same,Maximum Constriction (% 60 mM KCl),porcine coronary artery,79 % 60 mM KCl
"CC[C@H](C)[C@H](NC(=O)[C@H](CC(=O)O)NC(=O)[C@H](CC(C)C)NC(=O)[C@H](Cc1c[nH]cn1)NC(=O)[C@@H]1CSSC[C@H](N)C(=O)N[C@@H](CO)C(=O)N[C@@H](CC(C)C)C(=O)N[C@@H](CO)C(=O)N[C@@H](CO)C(=O)N[C@@H](CC(C)C)C(=O)N[C@@H](CCSC)C(=O)N[C@@H](CC(=O)O)C(=O)N[C@@H](CCCCN)C(=O)N[C@@H](CCC(=O)O)C(=O)N[C@@H](CC(C)C)C(=O)N[C@@H](C(C)C)C(=O)N[C@@H](Cc2ccc(O)cc2)C(=O)N[C@@H](Cc2ccccc2)C(=O)N1)C(=O)N[C@H](C(=O)N[C@@H](Cc1c[nH]c2ccccc12)C(=O)O)[C@@H](C)CC [Example 38, [Leu^3,11]-ET-1] (H-CSLSSLMDKELVYFCHLDIIW-OH; disulfide 1-15)",Receptor binding activity (Relative potency),endothelin receptor,0.1
same,Constrictor activity (Relative potency),porcine coronary artery,< 0.1
same,Maximum Constriction (% 60 mM KCl),porcine coronary artery,10 % 60 mM KCl
"CC[C@H](C)[C@H](NC(=O)[C@H](CC(=O)O)NC(=O)[C@H](CC(C)C)NC(=O)[C@H](Cc1c[nH]cn1)NC(=O)[C@@H]1CSSC[C@H](N)C(=O)N[C@@H](CO)C(=O)N[C@@H](C(C)C)C(=O)N[C@@H](CO)C(=O)N[C@@H](CO)C(=O)N[C@@H](CC(C)C)C(=O)N[C@@H](CCSC)C(=O)N[C@@H](CC(=O)O)C(=O)N[C@@H](CCCCN)C(=O)N[C@@H](CCC(=O)O)C(=O)N[C@@H](C(C)C)C(=O)N[C@@H](C(C)C)C(=O)N[C@@H](Cc2ccc(O)cc2)C(=O)N[C@@H](Cc2ccccc2)C(=O)N1)C(=O)N[C@H](C(=O)N[C@@H](Cc1c[nH]c2ccccc12)C(=O)O)[C@@H](C)CC [Example 39, [Val^3,11]-ET-1] (H-CSVSSLMDKEVVYFCHLDIIW-OH; disulfide 1-15)",Receptor binding activity (Relative potency),endothelin receptor,0.59
same,Constrictor activity (Relative potency),porcine coronary artery,< 0.1
same,Maximum Constriction (% 60 mM KCl),porcine coronary artery,34 % 60 mM KCl
"CC[C@H](C)[C@H](NC(=O)[C@H](CC(C)C)NC(=O)[C@H](Cc1c[nH]cn1)NC(=O)[C@@H]1CSSC[C@H](N)C(=O)N[C@@H](CO)C(=O)N[C@H]2CSSC[C@H](NC(=O)[C@H](CCC(=O)O)NC(=O)[C@H](CCCCN)NC(=O)[C@H](CC(=O)O)NC(=O)[C@H](CCSC)NC(=O)[C@H](CC(C)C)NC(=O)[C@H](CO)NC(=O)[C@H](CO)NC2=O)C(=O)N[C@@H](C(C)C)C(=O)N[C@@H](Cc2ccc(O)cc2)C(=O)N[C@@H](Cc2ccccc2)C(=O)N1)C(=O)N[C@H](C(=O)N[C@H](C(=O)N[C@@H](Cc1c[nH]c2ccccc12)C(=O)O)[C@@H](C)CC)[C@@H](C)CC [Example 43, [Ile^18]-ET-1] (H-CSCSSLMDKECVYFCHLIIIW-OH; disulfide 1-15, 3-11)",Receptor binding activity (Relative potency),endothelin receptor,3.2
same,Constrictor activity (Relative potency),porcine coronary artery,< 0.1
same,Maximum Constriction (% 60 mM KCl),porcine coronary artery,0 % 60 mM KCl
"CC[C@H](C)[C@H](NC(=O)[C@H](CC(C)(C)C)NC(=O)[C@H](CC(C)C)NC(=O)[C@H](Cc1c[nH]cn1)NC(=O)[C@@H]1CSSC[C@H](N)C(=O)N[C@@H](CO)C(=O)N[C@H]2CSSC[C@H](NC(=O)[C@H](CCC(=O)O)NC(=O)[C@H](CCCCN)NC(=O)[C@H](CC(=O)O)NC(=O)[C@H](CCSC)NC(=O)[C@H](CC(C)C)NC(=O)[C@H](CO)NC(=O)[C@H](CO)NC2=O)C(=O)N[C@@H](C(C)C)C(=O)N[C@@H](Cc2ccc(O)cc2)C(=O)N[C@@H](Cc2ccccc2)C(=O)N1)C(=O)N[C@H](C(=O)N[C@@H](Cc1c[nH]c2ccccc12)C(=O)O)[C@@H](C)CC [Example 45, [γ-Leu^18]-ET-1] (H-CSCSSLMDKECVYFCHL[tBuAla]IIW-OH; disulfide 1-15, 3-11)",Receptor binding activity (Relative potency),endothelin receptor,1.0
same,Constrictor activity (Relative potency),porcine coronary artery,< 0.1
same,Maximum Constriction (% 60 mM KCl),porcine coronary artery,3 % 60 mM KCl
"CC[C@H](C)[C@H](NC(=O)[C@H](CCC(=O)O)NC(=O)[C@H](CC(C)C)NC(=O)[C@H](Cc1c[nH]cn1)NC(=O)[C@@H]1CSSC[C@H](N)C(=O)N[C@@H](CO)C(=O)N[C@H]2CSSC[C@H](NC(=O)[C@H](CCC(=O)O)NC(=O)[C@H](CCCCN)NC(=O)[C@H](CC(=O)O)NC(=O)[C@H](CCSC)NC(=O)[C@H](CC(C)C)NC(=O)[C@H](CO)NC(=O)[C@H](CO)NC2=O)C(=O)N[C@@H](C(C)C)C(=O)N[C@@H](Cc2ccc(O)cc2)C(=O)N[C@@H](Cc2ccccc2)C(=O)N1)C(=O)N[C@H](C(=O)N[C@@H](Cc1c[nH]c2ccccc12)C(=O)O)[C@@H](C)CC [Example 46, [Glu^18]-ET-1] (H-CSCSSLMDKECVYFCHLEIIW-OH; disulfide 1-15, 3-11)",Receptor binding activity (Relative potency),endothelin receptor,3.2
same,Constrictor activity (Relative potency),porcine coronary artery,< 0.1
same,Maximum Constriction (% 60 mM KCl),porcine coronary artery,6 % 60 mM KCl
